Assays:
[1] = Plasma free fraction (fu) and unbound Cmax (Cmax,u); type: in vitro ADME, human; conditions: unbound plasma Cmax
OATP1B1 = conditions: known substrates; cited from earlier work
[2] = cited from earlier work
[3] = system: primary human hepatocytes, NIH3T3 fibroblasts, BSEP, CYP3A4; conditions: BSEP & Metabolism based; ref Schadt et al. 2015; cited from earlier work
[4] = system: THLE or HepG2 cells, isolated mitochondria, BSEP; conditions: Modeled in vitro assays (cytotoxicity, mitochondrial dysfunction, BSEP); ref Aleo et al. 2019; cited from earlier work
hLiMTs [5] = conditions: hLiMTs, ATP, IC50 < 100 × Cmax.tot; ref Proctor et al. 2017; cited from earlier work
[6] = system: HepG2 C3A spheroid, BSEP, Glu/Gal in HepG2 cells, bioactivation; conditions: Bayesian modeling; ref Williams et al. 2019; cited from earlier work
[7] = read-out: Human plasma Cmax; total plasma Cmax.tot, median of 9 literature references; cited from earlier work
[8] = plasma free fraction; cited from earlier work
[9] = Chen et al. 2016 or literature alignment; ref Chen et al. 2016; cited from earlier work
hLiMTs [10] = experiment: Combined HCI (HCS) and cellular ATP 3D assay in hLiMTs
HepaRG spheroids = experiment: Combined HCI (HCS) and cellular ATP 3D assay in HepaRG spheroids
[11] = HCS endpoints only, 25 × Cmax.tot cut-off
[12] = Microtissue model structural based (HCI), combined HCS and ATP, MEC < 25 × Cmax.tot cut-off

Human plasma Cmax,u [1]: 0.126 µM | hLiMTs <25x Avg Cmax ATP (hLiMTs [10]; hLiMTs, ATP endpoint, cut-off <25x Avg Cmax): -ve | hLiMTs <100x Avg Cmaxu ATP (hLiMTs [10]; hLiMTs, ATP endpoint, cut-off <100x Avg Cmaxu): -ve | hLiMTs <25x Avg Cmax HCS (hLiMTs [10]; hLiMTs, HCS endpoints, cut-off <25x Avg Cmax): +ve | hLiMTs <100x Avg Cmaxu HCS (hLiMTs [10]; hLiMTs, HCS endpoints, cut-off <100x Avg Cmaxu): -ve | hLiMTs <25x Avg Cmax All (hLiMTs [10]; hLiMTs, all endpoints (ATP and HCS), cut-off <25x Avg Cmax): +ve | hLiMTs Cmax max All (hLiMTs [10]; hLiMTs, all endpoints, Cmax max used): +ve | hLiMTs Cmax min All (hLiMTs [10]; hLiMTs, all endpoints, Cmax min used): +ve | hLiMTs <10 uM All (hLiMTs [10]; hLiMTs, all endpoints, cut-off <10 uM): -ve | hLiMTs <100x Avg Cmaxu All (hLiMTs [10]; hLiMTs, all endpoints, cut-off <100x Avg Cmaxu): -ve | HepaRG <25x Avg Cmax ATP (HepaRG spheroids; HepaRG, ATP endpoint, cut-off <25x Avg Cmax): -ve | HepaRG <100x Avg Cmaxu ATP (HepaRG spheroids; HepaRG, ATP endpoint, cut-off <100x Avg Cmaxu): -ve | HepaRG <25x Avg Cmax HCS (HepaRG spheroids; HepaRG, HCS endpoints, cut-off <25x Avg Cmax): +ve | HepaRG <100x Avg Cmaxu HCS (HepaRG spheroids; HepaRG, HCS endpoints, cut-off <100x Avg Cmaxu): +ve (<100x Avg Cmaxu) | HepaRG <25x Avg Cmax All (HepaRG spheroids; HepaRG, all endpoints (ATP and HCS), cut-off <25x Avg Cmax): +ve | HepaRG Cmax max All (HepaRG spheroids; HepaRG, all endpoints, Cmax max used): +ve | HepaRG Cmax min All (HepaRG spheroids; HepaRG, all endpoints, Cmax min used): +ve | HepaRG <10 uM All (HepaRG spheroids; HepaRG, all endpoints, cut-off <10 uM): +ve (<10 uM) | HepaRG <100x Avg Cmaxu All (HepaRG spheroids; HepaRG, all endpoints, cut-off <100x Avg Cmaxu): +ve (<100x Avg Cmaxu)
Structure (SMILES): Cc1cc2c(cc1CC(=O)c1sccc1S(=O)(=O)Nc1onc(C)c1Cl)OCO2 [sitaxsentan]
substrate for hepatic uptake transporter OATP1B1 (OATP1B1): known substrates | DILI severity category (Chen et al. [2016]) ([2]; LTKB DILIrank category, ref Chen et al. 2016): Most | DILI severity category (Chen 2016) ([2]; human DILI classification, LTKB DILIrank, ref Chen et al. 2016): Most | DILI severity category ([2]; human DILI severity, ref Chen et al.): Most | DILI in vitro assay prediction, Schadt (2015) [3]: +VE | Partition Hybrid HRM Score ≥4, Aleo (2019) [4]: +VE (Partition Hybrid HRM Score ≥4) | Partition Hybrid HRM Score ≥8, Aleo (2019) [4]: +VE (Partition Hybrid HRM Score ≥8) | Rule of Two hybrid HRM Score ≥3, Aleo (2019) [4]: +VE (Rule of Two hybrid HRM Score ≥3) | Rule of Two hybrid HRM Score ≥8, Aleo (2019) [4]: +VE (Rule of Two hybrid HRM Score ≥8) | hLiMTs/100xCmax, Proctor (2017) (hLiMTs [5]): +VE (IC50 < 100 × Cmax.tot) | Bayesian Machine Learning DILI prediction, Williams (2019) [6]: +VE | Cmax [7]: 25.3 µM | fu [8]: 0.005 | Assigned DILI category [9]: 3 | DILI prediction hLiMTs, HCI alone (hLiMTs [10]; [11]): detection | minimal effective concentration (hLiMTs [10]; Homo sapiens, read-out: HCS endpoint MEC): 130 µM | DILI prediction hLiMTs (HCS-MEC) (hLiMTs [10]; [12]): +VE (MEC < 25 × Cmax.tot cut-off) | DILI prediction hLiMTs, ATP alone (hLiMTs [10]; cellular ATP only, 25 × Cmax.tot cut-off): unpredicted | DILI prediction HepaRG spheroids, HCI alone (HepaRG spheroids; [11]): positive | AC50 (HepaRG spheroids; Homo sapiens, HepaRG, read-out: HCS endpoint AC50): 9.74 µM | minimal effective concentration (HepaRG spheroids; Homo sapiens, HepaRG, read-out: HCS endpoint MEC): 8.53 µM | DILI prediction HepaRG spheroids (HCS-MEC) (HepaRG spheroids; [12]): +VE (MEC < 25 × Cmax.tot cut-off)
